Test results from patent US20150258047A1, “Therapeutic Compounds” (AKTHELIA PHARMACEUTICALS, priority 2011, published 2015).
Values joined by “and” are separate entries in the source; they are usually repeats but may differ in a detail not shown here. Equal entries are not always repeated. Where two headings read alike, the source gives them in different places. Where no end group is shown, it is not given here.

Key:
CAP-18 [1] = assay: CAP-18 immunoreactivity in epithelial lining of organs (immunostaining, ACIA score); type: in vivo, rabbit; conditions: for CAP-18 peptide in the mucosal epithelia: Shigella infected rabbits, lung, trachea, rectum and colon; for CAP-18 in the organs of healthy rabbits: oral (FIG. 1B); for CAP-18 (protein) expression: oral, shigellosis infected rabbit, rectum, distal colon, kidney, lung and trachea relative to untreated infected rabbits (FIG. 1A)
Source text: FIG. 1. CAP-18 immunoreactivity in the epithelial lining of different organs in (A) Healthy rabbits, Shigella-infected rabbits and infected rabbits treated with NaB, TBG or PBA (B) healthy rabbits treated with NaB, TBG or PBA. Quantification of immunoreactive area relative to the total cell area of the tissue section was done by a computerized image analysis technique, and the results are expressed as ACIA score, i.e., the total positively stained area×total mean intensity (1-256 levels/per pixel) of the positive area divided by total cell area. One-way ANOVA was used in comparing data between healthy and infected/infected treated rabbits, between infected and infected treated rabbits, and between healthy and healthy-treated rabbits. The differences were significant when P<0.05; ‡ significant when comparing with healthy, * significant when comparing with infected.

Shigella flexneri strain = conditions: cited from earlier work
[2] = test system: Shigella dysenteriae type 1 strain; conditions: cited from earlier work
Shigella [3] = assay: Anti-Shigella activity in stool extracts of treated rabbits; type: in vivo, rabbit; conditions: compared to infected or healthy rabbits
Source text: (§1) Anti-Shigella activity in stool extracts from PBA, TBG and NaB-treated rabbits was higher compared to infected or healthy rabbits.

[4] = Maximum concentration of NaB in blood after IV administration (assumed blood volume); type: in vivo; conditions: 0.14 mmol/dose; assuming blood volume of 121 ml in the 2 kg rabbit
Procedure: (§2) In a shigellosis model a 0.14 mmol/dose lead to 2 out of 3 rabbits recovering from shigellosis. Assuming a blood volume of 121 ml in the 2 kg rabbit the maximum concentration of NaB in the blood after IV administration would have been 1.2 mM.

CAP-18 [5] = assay: CAP-18 gene expression in tissue specimens of Shigella-infected rabbits; type: in vivo, rabbit; set-up: scale not given here; conditions: treated Shigella-infected rabbits, n = 5, median
Shigella [6] = assay: Shigellosis rabbit model, clinical illness and recovery; type: in vivo; conditions: for clinical illness: Shigella infected rabbits
Procedure: as §1, §2

[7] = Butyrate concentration in rabbit serum after oral NaB; type: in vivo; conditions: oral dosing of 15.6 mg to each rabbit, read-out: maximum concentration of butyrate in the blood (Cmax)
Procedure: FIG. 2. Butyrate concentration in healthy rabbit serum after oral treatment with NaB. Serum was collected from healthy rabbits at different time points after oral treatment with a single 0.14 mmol dose of NaB (15.6 mg). Four analyses (duplicate analyses of two samples) of serum from a NaB treated rabbit are shown, where the concentrations are calculated from two separate standard curves (one for each duplicate). NaB: Sodium butyrate.
The maximum concentration of butyrate in the blood is about 8 μM (Cmax) after oral dosing of 15.6 mg of butyrate to each rabbit.

[8] = test system: Pseudomonas aeruginosa (strain PA01); assay: Visual inspection of VA10 cell cultures infected with Pseudomonas aeruginosa; type: cell-based; conditions: VA10 cells induced 48 h with 20 nM vitamin D, 4 mM PBA or both; 24 hrs after infection; control wells dense culture of bacteria
Procedure: FIG. 7. Visual assessment of survival of VA10 cells in the presence of low infectivity Pseudomonas aeruginosa 0-1 bacteria (PAO1). After cultivating for 6 days the cells were stimulated for 48 h with 4-PBA, VitD, and 4-PBA+VitD. Subsequently the cells were stimulated for 24 h with 10 MOI PAO1 and inspected under the microscope.
VA10 cells were grown in BEGM medium (Bronchial Epithelial Growth Medium). VA10 cells were induced by adding PBA and/or vitamin D to the medium. Untreated control was included. After 48 h induction the culture was infected with low dose of Pseudomonas aeruginosa (strain PA01) along with freeze-thaw-treated bacteria. After 24 hrs of cultivation the culture wells were visually inspected. Dense culture of bacteria was found in control wells, but the wells of cells that had been induced with 20 nM vitamin D, 4 mM PBA or combination of 20 nM vitamin D and 4 mM PBA contained clear medium (FIG. 7).

[9] = after the administration of a 5 g dose; cited from earlier work
DEFB-1 = DEFB-1 mRNA expression in VA10 cells by rtPCR; type: cell-based, human; conditions: first 4-PBA, subsequently low-dose inactivated Pseudomonas bacteria
Procedure: FIG. 9. DEFB-1 expression in VA10 cells after 48 h stimulation with 4 mM 4-PBA, 20 nM VitD, and […]+20 nM VitD and subsequent 24 h stimulation with low infectivity freeze-thawed PAO1 suspension (PAO1 has been frozen in DMEM at −25° C. for a week. The majority of bacteria have been inactivated.)
In addition to the visual inspection the degree of induction of CAMP mRNA, that codes for LL-37, and DEFB-1, that codes for […], was determined by rtPCR.

[10] = test system: E. coli strain E2348/69 (EPEC); type: cell-based; conditions: strain E2348/69 (EPEC, 0.90 μM)
Procedure: To assess bactericidal activity of synthetic CAP-18 and PBA, an in vitro killing experiment was carried out with E. coli strain E2348/69 (EPEC). […] Note that dosing in Phase II TB study is 1 g daily with 5000 IU vitamin D.

[11] = LP (lamina propria) distal colon
[12] = SE (surface epithelium) distal colon

CC[C@H](C)[C@H](NC(=O)[C@H](CCCCN)NC(=O)[C@H](CCC(=O)O)NC(=O)[C@H](CCCCN)NC(=O)[C@H](CO)NC(=O)[C@H](CCCCN)NC(=O)[C@H](CCCNC(=N)N)NC(=O)[C@H](Cc1ccccc1)NC(=O)[C@H](Cc1ccccc1)NC(=O)[C@H](CC(=O)O)NC(=O)CNC(=O)[C@H](CC(C)C)NC(=O)[C@@H](N)CC(C)C)C(=O)NCC(=O)N[C@@H](CCCCN)C(=O)N[C@@H](CCC(=O)O)C(=O)N[C@@H](Cc1ccccc1)C(=O)N[C@@H](CCCCN)C(=O)N[C@@H](CCCNC(=N)N)C(=O)N[C@H](C(=O)N[C@H](C(=O)N[C@@H](CCC(N)=O)C(=O)N[C@@H](CCCNC(=N)N)C(=O)N[C@H](C(=O)N[C@@H](CCCCN)C(=O)N[C@@H](CC(=O)O)C(=O)N[C@@H](Cc1ccccc1)C(=O)N[C@@H](CC(C)C)C(=O)N[C@@H](CCCNC(=N)N)C(=O)N[C@@H](CC(N)=O)C(=O)N[C@@H](CC(C)C)C(=O)N[C@H](C(=O)N1CCC[C@H]1C(=O)N[C@@H](CCCNC(=N)N)C(=O)N[C@H](C(=O)N[C@@H](CCC(=O)O)C(=O)N[C@@H](CO)C(=O)O)[C@@H](C)O)C(C)C)[C@@H](C)CC)C(C)C)[C@@H](C)CC [LL-37]
Zone diameter (Haemophilus influenzae; 50 uM): 0 mm
Zone diameter (Haemophilus influenzae; 100 uM): 7.75 mm
Zone diameter (Haemophilus influenzae; 300 uM): 13.3 mm
Zone diameter (Moraxella catarrhalis; 10 uM): 5.4 mm
Zone diameter (Moraxella catarrhalis; 25 uM): 6.3 mm
Zone diameter (Moraxella catarrhalis; 50 uM): 7.45 mm
Zone diameter (Moraxella catarrhalis; 100 uM): 8.9 mm

CCCC(=O)O [NaB, sodium butyrate]
CAP-18 peptide in the mucosal epithelia (CAP-18 [1]): up-regulation
CAP-18 level (CAP-18 [1]; colonic SE, intravenous injection into infected rabbits): 5.6±1.8 ACIA score
CAP-18 level (CAP-18 [1]; colonic SE, orally treated infected rabbits): 7.4±0.5 ACIA score
CAP-18 in the organs of healthy rabbits (CAP-18 [1]): do not cause increase
CAP-18 (protein) expression (CAP-18 [1]): systemic stimulation
CAP-18 level (CAP-18 [1]; rectal SE, intravenous injection into infected rabbits): 6.5±1.8 ACIA score
CAP-18 level (CAP-18 [1]; rectal SE, orally treated infected rabbits): 8.13±1 ACIA score
concentration for maximum killing (Shigella flexneri strain): 400 mM and 44 mg/ml
concentration for maximum killing [2]: 400 mM and 44 mg/ml
Anti-Shigella activity in stool extracts (Shigella [3]): higher
maximum concentration in the blood after IV administration [4]: 1.2 mM
CAP-18 gene expression (CAP-18 [5]; Kidney): 17.4
CAP-18 gene expression (CAP-18 [5]; [11]): 0.55
CAP-18 gene expression (CAP-18 [5]; LP (lamina propria) rectum): 0.1
CAP-18 gene expression (CAP-18 [5]; Lungs): 12.6
CAP-18 gene expression (CAP-18 [5]; [12]): 5.0
CAP-18 gene expression (CAP-18 [5]; SE (surface epithelium) rectum): 0.3
CAP-18 gene expression (CAP-18 [5]; Trachea): 0.71
CAP-18 gene expression (CAP-18 [5]; U. tract): 0.19
rabbits recovering from shigellosis (Shigella [6]; 0.14 mmol/dose, intravenous): 2 out of 3
clinical illness (Shigella [6]): reduced clinical illness
Cmax [7]: ~8 µM

O=C(O)CCCc1ccccc1 [PBA, sodium 4-phenylbutyrate, reference compound]
CAP-18 peptide in the mucosal epithelia (CAP-18 [1]): up-regulation
CAP-18 in the organs of healthy rabbits (CAP-18 [1]): do not cause increase
CAP-18 (protein) expression (CAP-18 [1]): systemic stimulation
visual inspection of culture wells [8]: clear medium
Cmax [9]: 1200 µM
Anti-Shigella activity in stool extracts (Shigella [3]): higher
CAP-18 gene expression (CAP-18 [5]; Kidney): 3.9
CAP-18 gene expression (CAP-18 [5]; [11]): 0.53
CAP-18 gene expression (CAP-18 [5]; LP (lamina propria) rectum): 0.41
CAP-18 gene expression (CAP-18 [5]; Lungs): 5.3
CAP-18 gene expression (CAP-18 [5]; [12]): 2.4
CAP-18 gene expression (CAP-18 [5]; SE (surface epithelium) rectum): 0.18
CAP-18 gene expression (CAP-18 [5]; Trachea): 1.1
CAP-18 gene expression (CAP-18 [5]; U. tract): 0.13
DEFB-1 expression (DEFB-1): up to six-fold
clinical illness (Shigella [6]): reduced clinical illness

CCCC(=O)OCC(COC(=O)CCC)OC(=O)CCC [TBG, glyceryl tributyrate]
CAP-18 peptide in the mucosal epithelia (CAP-18 [1]): up-regulation
CAP-18 peptide level in the kidney (CAP-18 [1]; non-infected rabbits (FIG. 1B)): increased levels
CAP-18 (protein) expression (CAP-18 [1]): systemic stimulation
Anti-Shigella activity in stool extracts (Shigella [3]): higher
CAP-18 gene expression (CAP-18 [5]; Kidney): 2.7
CAP-18 gene expression (CAP-18 [5]; [11]): 0.43
CAP-18 gene expression (CAP-18 [5]; LP (lamina propria) rectum): 0.07
CAP-18 gene expression (CAP-18 [5]; Lungs): 6.4
CAP-18 gene expression (CAP-18 [5]; [12]): 2.8
CAP-18 gene expression (CAP-18 [5]; SE (surface epithelium) rectum): 0.4
CAP-18 gene expression (CAP-18 [5]; Trachea): 1.11
CAP-18 gene expression (CAP-18 [5]; U. tract): 0.25
clinical illness (Shigella [6]): reduced clinical illness

GLRKRLRKFRNKIKEKLKKIGQKIQGLLPKLAPRTDY [CAP-18]
killing of EPEC [10]: 97-99%

vitamin D
visual inspection of culture wells [8]: clear medium
